The source of these data is patent US11369697B2, “Liposome nanoparticles for tumor magnetic resonance imaging” (UNITED KINGDOM RESEARCH AND INNOVATION, priority 2009, dated 2022).

The data set is described as follows: T1 relaxation of Gd lipids in aqueous solution (MRI efficacy). It is filed as physicochemical. Conditions: 0.5 mM, 4.7 T. As for the experimental part:
In order to establish the relaxation properties of Gd.DOTA.DSA, MRI studies of the lipid in aqueous solution were performed and T1 values and relaxivity parameters generated in milliseconds. […] A standard T1 saturation recovery method (spin echo sequence) was used to determine T1 values (according to Eq. 1), where x is TR (time to repeat), and Si is the measured signal for a given TR. Si=S0(1−e^(−x/T^1^))
MRI Analysis of Gd.DOTA.DSA For T1 analysis, Gd.DOTA.DSA 4, Gd.DTPA.BSA, and controls of the metal free compound, and Magnevist (Schering A G, Germany) were added to water to give a final concentration of 0.5 mM. The solutions (200 μL) were placed in eppendorf tubes and T1 relaxation values measured on a 4.7 T Varian MR scanner at ambient temperature. For relaxivity measurements; gadolinium liposome formulations were prepared in order to obtain five different gadolinium concentrations between […] in 200 μL of distilled water and the molar relaxivity r1 (mM^−1 s^−1) determined. T1 values were obtained using saturation recovery experiments performed with a standard spin-echo sequence and a 2 mm single slice acquisition (TR=50, 100, 200, 300, 500, 700, 1200, 3000, 5000, 7000 ms, TE=15 ms), number of signal averages; 2, FOV; 70×70 mm^2, collected into a matrix of 256×128.

Turning to “Gadolinium (III) 2-{4,7-Bis-Carboxymethyl-10-[(N, N-Distearylamidomethyl-N′-Amido-Methyl]-1,4,7,10-Tetra-Azacyclododec-1-yl}-Acetic Acid [Gd.DOTA.DSA]”, the “T1 relaxation compared to Gd.DTPA.BSA lipid” value is given as “comparable, if slightly better”. Also, the “efficacy compared to Magnevist and Gd.DTPA.BSA (T1 values)” value (lipid in aqueous solution, clinically relevant dose) is given as “compare favourably”.
